This is an account of results in patent publication US20050014647A1, “Method and composition for determining resistance to an acetohydroxy-acid synthase inhibitor” (priority 2001, published 2005).

What all share (type): cell-based
Assay [1] deals with AHAS. The assay is described as follows: in vivo AHAS assay, canola leaf discs with external supplement. As to conditions: canola, 14 hours; for % of 0/0 / OD 530, Avg. of the treated discs / OD 530, Treated: replicates 1-3; for OD 530, Treated: single treated discs; for % of No Alaninor Pyruvate: Alanine 0 %. On the procedure:
The procedure for the preparation of an in vivo AHAS assay is described below:
For the experiments, plants are grown from seed in soil in a greenhouse. Most experiments used wild type and imidazolinone resistant varieties of wheat, canola, rice, sunflower, and maize.
For the assay, a a microtiter plate is set up with 100 μl of one of the following solutions in each well: • a. Solution A: 10 mM phosphate buffer, pH 6; 10% Murashige and Skoog basal mineral salts (according to Murashige, T. and Skoog, F., Physiol. Plant., 15 473-497 (1962)); 500 μM CPCA (cyclopropyldicarboxylic acid); • b. Solution B: Solution A+alanine (or other supplements); • c. Solution C: Solution A+a pyruvate salt (or other supplements).
Plant material is excised from the newest emerging, rapidly growing leaf or stem from the test plant and placed in one of the microtiter plates. Usually, 5 mm leaf discs are cut from the newest emerging leaf. At least 2 discs per plant are cut. One disc is put in a well with Solution A and the other disc in a well with one of the other Solutions B or C (what solution are you using for background?).
After all wells in the microtiter plate contain plant material, the plate is covered with the microtiter plate cover and the plate with material is placed in a chamber with continuous fluorescent lights for 12 to 16 hours. The incubation is stopped by placing the plate in −20° C. freezer. After tissue and solutions freeze, the plate is thawed at room temperature and 25 μL of 5% sulfuric acid are added to each well. After incubation at 60° C. for 15 minutes, 175 μL of a freshly prepared mixture of α-naphthol (2.5%) and creatine (0.25%) in 2 N NaOH are added to each well and the plate is incubated at 60° C. for 15 minutes.
200 μL from each well are transferred to a new plate and OD530 on microtiter plate is readed by a spectrophotometer.

The subject of assay [2] is AHAS. The assay is described as follows: AHAS assay of resistant and non-resistant crops, maize stem slices. Details: dose or concentration left out as unconfirmed. As to conditions: imazamox and CPCA, average of four plants. On the procedure: (§1) For the experiments, plants are grown from seed in soil in a greenhouse. The experiments used wild type and imidazolinone resistant varieties of maize and wheat.
(§2) For the assay, a microtiter plate is set up with […] of one of the following solutions in each well: • Solution A: 10 mM phosphate buffer (pH 4.4), 10% prepared Murashige and Skoog basal mineral salt stock solution, 0.5% (w/v) alanine, 50 mM pyruvate salt, and 0.5 mM CPCA (cyclopropyldicarboxylic acid); • Solution B: Solution A+0.0025 mM imazamox; • Solution C: Solution A without 0.5 mM CPCA
(§3) Plant material is excised from the newest emerging leaf for wheat or rapidly growing stem for maize from the test plant and placed in one of the microtiter plates. Usually, 3 to 5 mm slices are cut from the newest emerging leaf or stem. At least 3 same-length slices per plant are cut. One disc is put in a well with Solution A, one in a well with Solution B, and the last one in a well with Solution C.
(§4) After all wells in the microtiter plate contain plant material, the plate is covered with a plate cover and is placed under continuous fluorescent lights for 14 to 18 hours. The incubation is stopped by placing the plate in a −20° C. freezer. After tissue and solutions freeze, the plate is thawed at room temperature, and […] of 5% sulfuric acid is added to each well. After incubation at 60° C. for 15 minutes, […] of a freshly prepared mixture of α-naphthol (2.5%, w/v) and creatine (0.25%, w/v) in 2 N NaOH are added to each well and the plate is incubated at 60° C. for 15 minutes.
(§5) A 190 μl solution from each well is transferred to a new plate, and OD530 on microtiter plate is readed by a spectrophotometer.
(§6) AHAS activity of each plant is determined by the following formula: (OD530 of well B−OD530 of well C)/(OD530 of well A−OD530 of well C).

Assay [3] deals with AHAS. The assay is described as follows: AHAS assay of resistant and non-resistant crops, wheat leaf slices. Details: dose or concentration left out as unconfirmed. As to conditions: imazamox and CPCA, average of four plants. On the procedure:
as §1, §2, §3, §4, §5, §6

Several values for one entry are separate records, joined by “and”; a condition that tells them apart may be missing. Identical values can stand only once.

As to `NC(=O)C[C@H](N)C(=O)O` [Asparagine, L-asparagine], in assay [1] (Asparagine (100 mM)), the “% of 0/0” value was 107% and 141% and 91%; the “OD 530, Avg. of the treated discs” value was 1.384 and 0.796 and 1.206; the “OD 530, Treated” value is 1.011 and 0.718 and 1.279 and 1.343 and 0.880 and 1.094 and 1.843 and 0.907 and 1.186.

On to `N.O` [NH4OH, ammonium hydroxide], for which the “% of No NH4 or Pyruvate” value came to 101% in assay [1] (NH4 6.25 mM, Pyruvate 0 mM); 138% in assay [1] (NH4 12.5 mM, Pyruvate 0 mM); 128% in assay [1] (NH4 25 mM, Pyruvate 0 mM); 142% in assay [1] (NH4 50 mM, Pyruvate 0 mM). For the same compound, in assay [1] (NH4OH (50 mM)), the “% of 0/0” value is 113% and 111% and 157%. In assay [1] (NH4OH (50 mM)), the “OD 530, Avg. of the treated discs” value was 0.697 and 0.886 and 1.386. Besides, the “OD 530, Treated” value in assay [1] (NH4OH (50 mM)) was 0.604 and 0.880 and 1.386 and 0.522 and 0.866 and 1.177 and 1.003 and 0.953 and 1.845.

Take `CC(=O)C(=O)O` [Pyruvate, Na-Pyruvate]: the entries for the “% of No Alaninor Pyruvate” value in assay [1] (Pyruvate 25 mM) and in assay [1] (Pyruvate 50 mM) were 110% and 139%, respectively. Moreover, the “% of No NH4 or Pyruvate” value is 109% in assay [1] (NH4 0 mM, Pyruvate 6.25 mM); 128% in assay [1] (NH4 0 mM, Pyruvate 12.5 mM); 138% in assay [1] (NH4 0 mM, Pyruvate 25 mM); 175% in assay [1] (NH4 0 mM, Pyruvate 50 mM). Further, the “% of 0/0” value in assay [1] (Pyruvate (100 mM)) is 134% and 153% and 188%. Besides, the “OD 530, Avg. of the treated discs” value in assay [1] (Pyruvate (100 mM)) is 1.510 and 1.730 and 1.950. Moreover, in assay [1] (Pyruvate (100 mM)), the “OD 530, Treated” value was 1.526 and 1.848 and 1.972 and 1.469 and 1.846 and 2.235 and 1.725 and 1.796 and 2.100.

On to `COCc1cnc(C2=NC(C)(C(C)C)C(=O)N2)c(C(=O)O)c1` (stereo not shown) [imazamox], for which the “Relative AHAS activity (%)” value was 45.2% in assay [2] (Maize variety Garst 8541 IT (Moderate-resistance)); 67.3% in assay [2] (Maize variety Pioneer 3395 IR (High-resistance)); 5.8% in assay [2] (Maize variety Pioneer 3514 (Non-resistance)); 22.4% in assay [3] (Wheat variety CV 9804 (Moderate-resistance)); 1.5% in assay [3] (Wheat variety Riband (Non-resistance)); 57.7% in assay [3] (Wheat variety Teal 15A (High-resistance)).
